Data on five compounds can be found in ChEMBL document CHEMBL5223117, “Synthesis and biological evaluation of novel N, N'-diarylurea derivatives as potent antibacterial agents against MRSA” (Bioorg Med Chem Lett, 2022).

The structures appear in SMILES notation. Values after ≈ are worked out from the molar mass of the structure shown. Active and inactive are the calls of the source. No cut-off for these calls is given here.

The subject of data set [1] is Staphylococcus epidermidis. The experiment in a line: Antibacterial activity against methicillin sensitive Staphylococcus epidermidis ATCC 12228. The class given is functional.
The test system of data set [2] is Staphylococcus epidermidis. The experiment in a line: Antibacterial activity against methicillin sensitive Staphylococcus epidermidis 17-13. Format: functional.
Data set [3] relates to Staphylococcus epidermidis. The experiment in a line: Antibacterial activity against methicillin resistant Staphylococcus epidermidis 19-1. Format: functional.
Data set [4] deals with Staphylococcus epidermidis. The experiment in a line: Antibacterial activity against methicillin resistant Staphylococcus epidermidis 19-2. Format: functional.
The subject of data set [5] is Staphylococcus aureus. In words: Antibacterial activity against methicillin sensitive Staphylococcus aureus ATCC 29213. The class given is functional.
Data set [6] relates to Staphylococcus aureus. In words: Antibacterial activity against methicillin sensitive Staphylococcus aureus 15. Format: functional.
Data set [7] relates to Staphylococcus aureus. The experiment in a line: Antibacterial activity against methicillin resistant Staphylococcus aureus 20-11. The class given is functional.
Data set [8] deals with Staphylococcus aureus. In words: Antibacterial activity against methicillin resistant Staphylococcus aureus ATCC 43300. The class given is functional.
In data set [9] the test system is Staphylococcus aureus. The experiment in a line: Antibacterial activity against vancomycin intermediate and methicillin resistant Staphylococcus aureus ATCC 700698. Format: functional.
In data set [10] the test system is Staphylococcus aureus. The experiment in a line: Antibacterial activity against vancomycin intermediate and methicillin resistant Staphylococcus aureus ATCC 700699. The class given is functional.
For data set [11], the system named is Staphylococcus aureus. In words: Antibacterial activity against methicillin sensitive Staphylococcus aureus 20-12. Format: functional.
The subject of data set [12] is Staphylococcus aureus. In words: Antibacterial activity against methicillin sensitive Staphylococcus aureus ATCC 33591. Format: functional.
For data set [13], the system named is Staphylococcus aureus. In words: Antibacterial activity against methicillin resistant Staphylococcus aureus 18-2. The class given is functional.
In data set [14] the test system is Enterococcus faecalis. The experiment in a line: Antibacterial activity against Vanomycin-resistant Enterococcus faecalis ATCC 51299. The class given is functional.
The subject of data set [15] is Enterococcus faecalis. The experiment in a line: Antibacterial activity against Vanomycin-resistant Enterococcus faecalis ATCC 51575. The class given is functional.
Data set [16] concerns Enterococcus faecium. The experiment in a line: Antibacterial activity against Vanomycin-resistant Enterococcus faecium ATCC 700221. Format: functional.
Data set [17] concerns Enterococcus faecium. In words: Antibacterial activity against Vanomycin-resistant Enterococcus faecium ATCC 51559. The class given is functional.
The subject of data set [18] is Enterococcus faecium. In words: Antibacterial activity against Vanomycin-resistant Enterococcus faecium 15-6. The class given is functional.
For data set [19], the system named is Staphylococcus aureus. The experiment in a line: Selectivity ratio of MBC for bactericidal activity against methicillin resistant Staphylococcus aureus ATCC 43300 to MIC for antibacterial activity against methicillin resistant Staphylococcus aureus ATCC 43300. Format: functional.
For data set [20], the system named is Staphylococcus aureus. In words: Selectivity ratio of MBC for bactericidal activity against methicillin resistant Staphylococcus aureus ATCC 33591 to MIC for antibacterial activity against methicillin resistant Staphylococcus aureus ATCC 33591. Format: functional.
For data set [21], the system named is Staphylococcus aureus. The experiment in a line: Bactericidal activity against methicillin resistant Staphylococcus aureus 16-30. Format: functional.
The nature of data set [22]: Cytotoxicity against human HeLa cells by SRB assay. The class given is toxicity, cell-based.
Data set [23] is described as follows: Cytotoxicity against human HepG2 cells by SRB assay. The class given is toxicity, cell-based. (In general: Sulforhodamine B stains cellular protein and so reports cell mass.)
The subject of data set [24] is Staphylococcus aureus. In words: Antibacterial activity against methicillin resistant Staphylococcus aureus 16-30. The class given is functional.
Data set [25] has as its system Staphylococcus aureus. The experiment in a line: Antibacterial activity against methicillin resistant Staphylococcus aureus ATCC 33591. Format: functional.
The test system of data set [26] is Staphylococcus aureus. In words: Bactericidal activity against methicillin resistant Staphylococcus aureus ATCC 33591. The class given is functional.
The test system of data set [27] is Staphylococcus aureus. The experiment in a line: Bactericidal activity against methicillin resistant Staphylococcus aureus ATCC 43300. The class given is functional.
In data set [28] the test system is Staphylococcus aureus. The experiment in a line: Selectivity ratio of MBC for bactericidal activity against methicillin resistant Staphylococcus aureus 16-30 to MIC for antibacterial activity against methicillin resistant Staphylococcus aureus 16-30. Format: functional.

Broadly, the MIC is the lowest concentration that inhibits growth of the organism. For `O=C(Nc1ccc(F)cc1)Nc1ccc(Cl)c(C(F)(F)F)c1`, the MIC worked out at 6.01 µM (≈ 2 µg/mL) in [1]; 6.01 µM (≈ 2 µg/mL) in data set [2]; 6.01 µM (≈ 2 µg/mL) in [3]; 6.01 µM (≈ 2 µg/mL) in data set [4]; 12 µM (≈ 4 µg/mL) in the data set on Staphylococcus aureus [5]; 6.01 µM (≈ 2 µg/mL) in the data set on Staphylococcus aureus [6]. Moreover, the MIC is 12 µM (≈ 4 µg/mL) in the data set with Staphylococcus aureus [7]; 12 µM (≈ 4 µg/mL) with Staphylococcus aureus [8]; 12 µM (≈ 4 µg/mL) in the data set on Staphylococcus aureus [9]; 3.01 µM (≈ 1 µg/mL) against Staphylococcus aureus [10]; 12 µM (≈ 4 µg/mL) in the data set with Staphylococcus aureus [11]; 6.01 µM (≈ 2 µg/mL) in the data set on Staphylococcus aureus [12]. The minimal inhibitory concentration (MIC) in the data set on Staphylococcus aureus [13] was 6.01 µM (≈ 2 µg/mL); with Enterococcus faecalis [14] it was 192 µM (≈ 64 µg/mL); against Enterococcus faecalis [15], 192 µM (≈ 64 µg/mL); against Enterococcus faecium [16] it was 48.1 µM (≈ 16 µg/mL); in the data set with Enterococcus faecium [17], 96.2 µM (≈ 32 µg/mL); in the data set with Enterococcus faecium [18] it was 48.1 µM (≈ 16 µg/mL).
As for `O=C(Nc1ccc(Cl)c(C(F)(F)F)c1)Nc1cc(Cl)c(F)cc1F`, the MIC in data set [1] was determined as 2.6 µM (≈ 1 µg/mL); in [2] it was 2.6 µM (≈ 1 µg/mL); in [3], 2.6 µM (≈ 1 µg/mL); in data set [4], 1.3 µM (≈ 0.501 µg/mL); against Staphylococcus aureus [5], 2.6 µM (≈ 1 µg/mL); with Staphylococcus aureus [6], 1.3 µM (≈ 0.501 µg/mL). Moreover, the MIC is 2.6 µM (≈ 1 µg/mL) in the data set on Staphylococcus aureus [7]; 2.6 µM (≈ 1 µg/mL) in the data set on Staphylococcus aureus [8]; 2.6 µM (≈ 1 µg/mL) against Staphylococcus aureus [9]; 2.6 µM (≈ 1 µg/mL) in the data set with Staphylococcus aureus [10]; 2.6 µM (≈ 1 µg/mL) in the data set with Staphylococcus aureus [11]; 1.3 µM (≈ 0.501 µg/mL) in the data set on Staphylococcus aureus [12]. The MIC in the data set on Staphylococcus aureus [13] was determined as 2.6 µM (≈ 1 µg/mL); in the data set with Enterococcus faecalis [14], 20.8 µM (≈ 8 µg/mL); against Enterococcus faecalis [15], 10.4 µM (≈ 4 µg/mL); in the data set on Enterococcus faecium [16], 5.19 µM (≈ 2 µg/mL); in the data set on Enterococcus faecium [17] it was 5.19 µM (≈ 2 µg/mL); with Enterococcus faecium [18], 5.19 µM (≈ 2 µg/mL).
With `C[C@H]1COc2c(N3CCN(C)CC3)c(F)cc3c(=O)c(C(=O)O)cn1c23` [LEVOFLOXACIN], the MIC was 0.69 µM (≈ 0.249 µg/mL) in [1]; 0.69 µM (≈ 0.249 µg/mL) in [2]; 11.1 µM (≈ 4 µg/mL) in [3]; 11.1 µM (≈ 4 µg/mL) in data set [4]; 0.69 µM (≈ 0.249 µg/mL) against Staphylococcus aureus [5]; 0.69 µM (≈ 0.249 µg/mL) in the data set on Staphylococcus aureus [6]. For the same compound, the minimal inhibitory concentration (MIC) in the data set with Staphylococcus aureus [7] is 1.38 µM (≈ 0.499 µg/mL); in the data set with Staphylococcus aureus [8], 1.38 µM (≈ 0.499 µg/mL); in the data set with Staphylococcus aureus [9], 22.1 µM (≈ 8 µg/mL); in the data set on Staphylococcus aureus [10], 22.1 µM (≈ 8 µg/mL); with Staphylococcus aureus [11], 1.38 µM (≈ 0.499 µg/mL); against Staphylococcus aureus [12] it was 0.69 µM (≈ 0.249 µg/mL). Also, the MIC was 177 µM (≈ 64 µg/mL) against Staphylococcus aureus [13]; 1.38 µM (≈ 0.499 µg/mL) in the data set on Enterococcus faecalis [14]; 2.77 µM (≈ 1 µg/mL) with Enterococcus faecalis [15]; 177 µM (≈ 64 µg/mL) against Enterococcus faecium [16]; 88.5 µM (≈ 32 µg/mL) against Enterococcus faecium [17]; 177 µM (≈ 64 µg/mL) in the data set on Enterococcus faecium [18].
As usually defined, the MBC is the lowest tested concentration that kills the bacteria rather than only halting them. Higher therefore signals weaker bactericidal potency. As usually defined, the IC50 is the concentration that gives 50% inhibition. A high value points to lower potency. In the case of `O=C(Nc1ccc(Cl)c(C(F)(F)F)c1)Nc1ccc(Cl)c(C(F)(F)F)c1`, the values for the Ratio with Staphylococcus aureus [19], in the data set on Staphylococcus aureus [20] and with Staphylococcus aureus [28] were 8, 4 and 8, respectively. Further, the MBC in the data set with Staphylococcus aureus [21] turned out to be 9.59 µM (≈ 4 µg/mL); with Staphylococcus aureus [26], 4.79 µM (≈ 2 µg/mL); in the data set with Staphylococcus aureus [27] it was 9.59 µM (≈ 4 µg/mL). The minimum inhibitory concentration (MIC) (in data set [1]; in data set [2]; in data set [3]; in [4]; in the data set with Staphylococcus aureus [5]; in the data set with Staphylococcus aureus [6]) was 1.2 µM (≈ 0.501 µg/mL) in each case. Further, the MIC with Staphylococcus aureus [7], in the data set with Staphylococcus aureus [8], in the data set with Staphylococcus aureus [9], in the data set with Staphylococcus aureus [10], with Staphylococcus aureus [11] and against Staphylococcus aureus [12] was 1.2 µM (≈ 0.501 µg/mL) throughout. The minimum inhibitory concentration (MIC) in the data set on Staphylococcus aureus [13] was found to be 1.2 µM (≈ 0.501 µg/mL); against Enterococcus faecalis [14] it was 4.79 µM (≈ 2 µg/mL); in the data set on Enterococcus faecalis [15] it was 4.79 µM (≈ 2 µg/mL); with Enterococcus faecium [16], 4.79 µM (≈ 2 µg/mL); in the data set on Enterococcus faecium [17] it was 4.79 µM (≈ 2 µg/mL); in the data set on Enterococcus faecium [18], 2.4 µM (≈ 1 µg/mL). Further, the minimum inhibitory concentration (MIC) against Staphylococcus aureus [24] and against Staphylococcus aureus [25] was 1.2 µM (≈ 0.501 µg/mL) each time. The values for the concentration for half-maximal inhibition (IC50) in data set [22] and in [23] were 2.69 µM and 7.72 µM, respectively.
With `O=C(Nc1ccc(OC(F)(F)F)cc1)N1CCN(c2ccc(Cl)c(C(F)(F)F)c2)C1=O`, the MIC result (in data set [1]; in data set [2]; in data set [3]; in [4]; with Staphylococcus aureus [5]; in the data set with Staphylococcus aureus [6]) was “inactive” in each case. In addition, the MIC entry in the data set on Staphylococcus aureus [7], in the data set on Staphylococcus aureus [8], in the data set with Staphylococcus aureus [9], with Staphylococcus aureus [10], in the data set on Staphylococcus aureus [11] and in the data set on Staphylococcus aureus [12] was “inactive” each time. Also, the MIC entry in the data set with Staphylococcus aureus [13] is “inactive”. Besides, the half-maximal inhibitory concentration (IC50) in [22] and in data set [23] was 100 µM each time.
